From US8779144B2, “Bicycloheteroaryl compounds as P2X7 modulators and uses thereof” (Evotec (US) Inc., priority 2006, dated 2014)

Tests used:
[1] = tested on: IL-1β release from THP-1 cells; experiment: IL-1β release assay in differentiated THP-1 cells stimulated with BzATP (ELISA); type: cell-based; conditions: Homo sapiens; for inhibition at 0.3 µM: 0.3 uM compound, BzATP 250 uM, read-out: IL-1β % Inhib. @ 0.3 uM.; for IC50: released IL-1β as in Example 9, four parameter logistic fit, read-out: IL-Iβ IC50
Method: THP-1 cells (ATCC Cat #285-IF-100) are plated in 96 well plates at a concentration of 200,000 cells per well and allowed to differentiate in RPMI-1640 media (ATCC Cat #30-2001) containing 10% FBS, 100 IU/mL penicillin, 100 ug/mL streptomycin, 100 ng/mL LPS and 100 ng/mL IFN-γ for 16 hours. Following differentiation, the cells are treated for an additional 2 hours in RPMI-1640 media containing 100 IU/mL penicillin, 100 ug/mL streptomycin and fresh LPS at 100 ng/mL. The cells are then pretreated for 30 minutes with the compound of interest at the appropriate concentration in RPMI media containing 100 IU/mL penicillin, 100 ug/mL streptomycin. Following the pretreatment 2′,3′-O-(4-benzoylbenzoyl)-adenosine 5′-triphosphate (Sigma Aldrich Cat # B6396) is added to a final concentration of 250 uM and the cells are incubated for an additional 45 minutes. 30 uL of cell supernatant is then collected and IL-113 levels determined via ELISA (R&D systems Cat. # HSLB50) according to manufacturer's recommendations using the Tecan Safire plate reader. Background adjusted IL-1β levels of drug treated and non-treated cells are used to calculate the percent inhibition. […]
The compounds set forth in Table 1 were tested for activity in a cellular model as described herein. Specifically, cells were pretreated with differing amounts of the compound under test and released IL-1β determined as in Example 9, above. Measurements were made and IC50 values, presented in Table 2, below, were determined by fitting the data to a four parameter logistic equation using GraphPad Prism software (GraphPad Software, Inc). The equation may be expressed by the following formula: Y=Bottom+(Top−Bottom)/(1+10^((LogEC50−X)*HillSlope)) Where X is the logarithm of concentration, Y is the response and Y starts at Bottom and goes to Top with a sigmoid shape.

[2] = Half-life in human liver microsomes (HLM); type: in vitro ADME; conditions: 1 μM compound, 0.78 mg/mL HLM, NADPH, pH 7.4, 37° C.
Method: Test compounds (1 μM) are incubated with 3.3 mM MgCl2 and 0.78 mg/mL HLM (HL101) in 100 mM potassium phosphate buffer (pH 7.4) at 37° C. on the 96-deep well plate. The reaction mixture is split into two groups, a non-P450 and a P450 group. NADPH is only added to the reaction mixture of the P450 group. An aliquot of samples of P450 group is collected at 0, 10, 30, and 60 min time point, where 0 min time point indicated the time when NADPH is added into the reaction mixture of P450 group. An aliquot of samples of non-P450 group is collected at −10 and 65 min time point. Collected aliquots are extracted with acetonitrile solution containing an internal standard. The precipitated protein is spun down in centrifuge (2000 rpm, 15 min). The compound concentration in supernatant is measured by LC/MS/MS system.
The half-life value is obtained by plotting the natural logarithm of the peak area ratio of compounds/internal standard versus time. The slope of the line of best fit through the points yields the rate of metabolism (k). This is converted to a half-life value using following equations: Half-life=ln 2/k

Row | IC50 [1] | half-life at 1 μM [2] | Compound | inhibition at 0.3 µM [1]
1 | 1.37 nM | 13.8 min | O=C(NCC1(O)CCCCCC1)c1cccc2c(=O)n(Cc3ccc4c(c3)OCCO4)ccc12 [Compound 2033, 2-(2,3-Dihydro-benzo[1,4]dioxin-6-ylmethyl)-1-oxo-1,2-dihydro-isoquinoline-5-carboxylic acid (1-hydroxy-cycloheptylmethyl)-amide] | > 76%
2 | 23 nM | 38.4 min | CC1(C)CCCC(O)(CNC(=O)c2cccc3c(=O)n(C(CO)CO)ccc23)C1 (stereo not drawn) [Compound 2043] | > 76%
3 | 48.6 nM | 22.8 min | Cn1ccc2c(C(=O)NCC3(O)CCCCCC3)cccc2c1=O [Compound 2032] | > 76%
4 | 0.73 nM | 18.6 min | O=C(NCC12CC3CC(CC(C3)C1)C2)c1cccc2c(=O)[nH]ccc12 [Compound 2028, 1-Oxo-1,2-dihydro-isoquinoline-5-carboxylic acid (adamantan-1-ylmethyl)-amide] | > 76%
5 | 133 nM | 15.6 min | O=C(NCC1(O)CCCCCC1)c1cccc2c(=O)n(CC3CCOCC3)ccc12 [Compound 2034] | 51 to 75%
6 | 79 nM | 23.4 min | O=C(NCC1(O)CCCCCC1)c1cccc2c(=O)[nH]ccc12 [Compound 2030] | 51 to 75%
7 | 573 nM | 31.8 min | O=C(NCC1(O)CCCCCC1)c1cccc2c(=O)n(C(CO)CO)ccc12 [Compound 2047] | 26 to 50%
8 | 0.15 nM | 19.2 min | C[C@H](C(N)=O)n1ccc2c(C(=O)NCC34CC5CC(CC(C5)C3)C4)cccc2c1=O [Compound 2064, 2-((R)-1-Carbamoyl-ethyl)-1-oxo-1,2-dihydro-isoquinoline-5-carboxylic acid (adamantan-1-ylmethyl)-amide] | > 76%
9 | 17.3 nM | 66 min | C[C@@H](C(N)=O)n1ccc2c(C(=O)NCC3CCCCCC3)cccc2c1=O [Compound 2063] | > 76%
